# Read-outs that look alike come from different tables or passages of the source.
# What was measured:
# [1] = system: L. donovani axenic, strain MHOM-ET-67/L82 amastigotes; assay: In vitro activity against L. donovani axenic amastigotes; format: cell-based, Leishmania donovani; settings: for IC50: Leishmania donovani, L. donovani axenic amastigotes MHOM-ET-67/L82, read-out: L.d. IC50; for SI (L.d.): ratio IC50 in L6 cells/IC50 in L. donovani; for activity class against L. donovani: L. donovani amastigotes
# Method: (§3) In vitro activity against T. cruzi, T. b. rhodesiense, L. donovani and cytotoxicity assessment using L6 cells (rat skeletal myoblasts) was determined using a 96-well plate format as previously described [38]. Data were analyzed with the graphic program Softmax Pro (Molecular Devices, Sunnyvale, CA, USA), which calculated IC50 values by linear regression from the sigmoidal dose inhibition curves.
# [2] = system: TbNTR overexpressing T. b. brucei; assay: microbe, parasite or virus in culture; format: cell-based, Trypanosoma brucei brucei; settings: for Ratio –tet/+tet: IC50 −tet / IC50 +tet; for IC50: Trypanosoma brucei
# Method: (§4) To further determine whether NTR plays a role in metabolizing the substrates within the parasite, the above subset of compounds were phenotypically screened against BSF T. b. brucei expressing wild type or elevated levels of TbNTR.
# (§5) Where appropriate, induction of the TbNTR was carried out by adding tetracycline (1 μg/mL). After incubation for 3 days at 37 °C, resazurin (2.5 μg per well) was added to each well and the plates incubated for a further 8 h. The cell density of each culture was determined as described before [26] and the IC50 established.
# T. b. brucei wild type = assay: T. brucei brucei antiproliferating assay, wild type bloodstream form; format: cell-based; settings: Trypanosoma brucei, 72 h
# Method: as §4, §5
# [3] = system: T. cruzi, strain Tulahuen C4 amastigotes; assay: In vitro activity against T. cruzi amastigotes in infected L6 cells; format: cell-based, Trypanosoma cruzi; settings: for IC50: Trypanosoma cruzi, T. cruzi Tulahuen C4 amastigotes in L6 cells, read-out: T. c. IC50; for SI (T. c.): ratio IC50 in L6 cells/IC50 in T. cruzi; for Bnz/comp: ratio of T. cruzi IC50 of benznidazole to that of the compound
# Method: as §3
# [4] = system: T.b. rhodesiense, strain STIB 900 trypomastigotes; assay: In vitro activity against T. b. rhodesiense, strain STIB 900 trypomastigotes; format: cell-based, Trypanosoma brucei rhodesiense; settings: for IC50: Trypanosoma brucei, read-out: T.b.r. IC50; for SI (T.b.r.): ratio IC50 in L6 cells/IC50 in T.b. rhodesiense
# Method: (§1) Compounds in Table 1 were screened for antiparasitic activity against three trypanosomatids: T. cruzi, T. b. rhodesiense and Leishmania donovani. The concentration of compound that inhibits parasite growth by 50% (IC50) was calculated from dose response curves for each parasite (Table 1). In addition, compounds were tested for toxicity in L6 rat skeletal myoblasts, used as host cells for T. cruzi amastigotes, in order to calculate a selectivity index for each parasite (SI = IC50L6/IC50parasite) (Table 1).
# (§2) In vitro activity against T. cruzi, T. b. rhodesiense, L. donovani and cytotoxicity assessment using L6 cells (rat skeletal myoblasts) was determined using a 96-well plate format as previously described. Data were analyzed with the graphic program Softmax Pro (Molecular Devices, Sunnyvale, CA, USA), which calculated IC50 values by linear regression from the sigmoidal dose inhibition curves.
# [5] = system: L6 cells (rat skeletal myoblasts); assay: Cytotoxicity in the host L6 cells; format: cell-based; settings: read-out: Cyt. L6 IC50
# Method: as §1, §2
# [6] = read-out: IC50 value T.b. brucei TbNTR (+tet)
# [7] = read-out: IC50 value T.b. brucei TbNTR (−tet)
# [8] = read-out: IC50 value T.b. brucei Wild type, BSF, wild type, 3 days
# [9] = T.b. rhodesiense STIB 900 trypomastigotes
SMILES,melting point,IC50 [1] [µM],SI (L.d.) [1],Ratio –tet/+tet [2],"IC50 [2, 6] [µM]","IC50 [2, 7] [µM]",IC50 (T. b. brucei wild type; [8]) [µM],IC50 [3] [µM],SI (T. c.) [3],Bnz/comp [3],"IC50 [4, 9] [µM]",SI (T.b.r.) [4],IC50 [5] [µM],"IC50 (T. b. brucei wild type; BSF, wild type, 3 days, read-out: IC50 value T.b. brucei Wild type) [µM]",activity class against L. donovani [1],fold less potent against T. cruzi than the corresponding 3-nitrotriazole-based analog ([3]; comparison with analogs of ref 24),IC50 [4] [µM]
"O=C(CN1CCN(c2ccc(C(F)(F)F)cc2)CC1)Nc1ncc([N+](=O)[O-])s1 [Compound 3, N-(5-nitrothiazol-2-yl)-2-(4-(4-(trifluoromethyl)phenyl)piperazin-1-yl)acetamide]",173 to 175 °C,12.7,3.7,2.8,0.526 ± 0.024,1.46 ± 0.113,1.02 ± 0.045,1.73,27,1.3,8.42,5.6,47.1,,,,
"CC1CS(=O)(=O)CCN1/N=C/c1ccc([N+](=O)[O-])o1 (stereo not shown) [nfx, nifurtimox, reference compound]",,,,7.3,0.869 ± 0.046,6.36 ± 0.119,,,,,,,,3.98 ± 0.15,,,
"O=C(CN1CCN(C(c2ccccc2)c2ccc(Cl)cc2)CC1)Nc1ncc([N+](=O)[O-])s1 (stereo not shown) [Compound 6, 2-(4-((4-chlorophenyl)(phenyl)methyl)piperazin-1-yl)-N-(5-nitrothiazol-2-yl)acetamide]",92 to 95 °C,3.39,3.8,2.6,0.636 ± 0.022,1.64 ± 0.069,1.47 ± 0.104,0.571,23,3.8,17.4,<1,12.9,,moderately active (between 1.0 and 6.0 μM),about 8 fold,
"Cc1ccc(N2CCN(CC(=O)Nc3ncc([N+](=O)[O-])s3)CC2)cc1 [Compound 2, N-(5-nitrothiazol-2-yl)-2-(4-(p-tolyl)piperazin-1-yl)acetamide]",160 to 161 °C (dec.),41.4,3,,,,,9.31,14,0.2,14.4,8.8,126,,,,
"O=C(CN1CCN(c2ccccn2)CC1)Nc1ncc([N+](=O)[O-])s1 [Compound 7, N-(5-nitrothiazol-2-yl)-2-(4-(pyridin-2-yl)piperazin-1-yl)acetamide]",175 to 180 °C (dec.),64.9,<1,,,,,4.97,5.9,0.4,13.3,2.2,29.6,,,,
"O=C(COc1ccc(Oc2ccccc2)cc1)Nc1ncc([N+](=O)[O-])s1 [Compound 12, N-(5-nitrothiazol-2-yl)-2-(4-phenoxyphenoxy)acetamide]",,5.4,,,,,,32.6,,0.1,28.4,,52.7,,moderately active (between 1.0 and 6.0 μM),,
"O=C(COc1cccc(-c2ccccc2)c1)Nc1ncc([N+](=O)[O-])s1 [Compound 9, 2-([1,1′-biphenyl]-3-yloxy)-N-(5-nitrothiazol-2-yl)acetamide]",148 to 150 °C,4.27,12,,,,,22.8,2.2,0.1,28.7,1.7,49.4,,moderately active (between 1.0 and 6.0 μM),,
"O=C(COc1cccc(Oc2ccccc2)c1)Nc1ncc([N+](=O)[O-])s1 [Compound 10, N-(5-nitrothiazol-2-yl)-2-(3-phenoxyphenoxy)acetamide]",151 to 153 °C,5.4,10,,,,,34.6,1.6,0.1,31,1.8,54.9,,moderately active (between 1.0 and 6.0 μM),,
"COc1ccc(N2CCN(CC(=O)Nc3ncc([N+](=O)[O-])s3)CC2)cc1 [Compound 4, 2-(4-(4-methoxyphenyl)piperazin-1-yl)-N-(5-nitrothiazol-2-yl)acetamide]",154 to 156 °C (dec.),68.2,2.1,,,,,3.06,,0.7,13.8,10,143,,,,
"O=C(Nc1ncc([N+](=O)[O-])s1)c1ccc(-c2ccccc2)cc1 [Compound 8, N-(5-nitrothiazol-2-yl)-[1,1′-biphenyl]-4-carboxamide]",> 230 °C,104,<1,2.1,2.18 ± 0.085,4.59 ± 0.149,1.61 ± 0.396,2.52,2.6,0.9,14.3,<1,6.57,,,,
"O=C(COc1ccc(-c2ccccc2)cc1)Nc1ncc([N+](=O)[O-])s1 [Compound 11, 2-([1,1′-biphenyl]-4-yloxy)-N-(5-nitrothiazol-2-yl)acetamide]",196 to 198 °C,10.5,5.2,1.5,2.2 ± 0.1,3.25 ± 0.142,3.75 ± 0.383,18.4,3,0.1,40.8,1.3,54.9,,,,
"O=C(CN1CCN(c2ccc(Cl)c(Cl)c2)CC1)Nc1ncc([N+](=O)[O-])s1 [Compound 5, 2-(4-(3,4-dichlorophenyl)piperazin-1-yl)-N-(5-nitrothiazol-2-yl)acetamide]",169 to 171 °C,7.55,6.1,2.6,0.747 ± 0.075,1.96 ± 0.101,1.36 ± 0.091,1.53,30,1.4,10.8,4.2,45.7,,,,
"Nc1nc(N)nc(Nc2ccc([As]3SCC(CO)S3)cc2)n1 (stereo not shown) [Melars., Melarsoprol, reference compound]",,,,,,,,,,,,,,,,,0.009 ± 0.001

# — PMC4876673, “Antitrypanosomal activity of 5-nitro-2-aminothiazole-based compounds” (European Journal of Medicinal Chemistry, 2016)
